Among the data in paper PMC7438732, “The H^+-Translocating Inorganic Pyrophosphatase From Arabidopsis thaliana Is More Sensitive to Sodium Than Its Na^+-Translocating Counterpart From Methanosarcina mazei” (Frontiers in Plant Science, 2020) are Kd values, retold here.

The target in one assay is T1, MVP (Methanosarcina mazei, UniProt Q8PYZ8).
T1 construct: gene hppA1; InvGFPMVP: N-terminal signal peptide of yeast Suc2p + yEGFP + MVP; stripped microsomal membranes of S. cerevisiae YPC6; homodimer
T1 sequence (Q8PYZ8 whole entry): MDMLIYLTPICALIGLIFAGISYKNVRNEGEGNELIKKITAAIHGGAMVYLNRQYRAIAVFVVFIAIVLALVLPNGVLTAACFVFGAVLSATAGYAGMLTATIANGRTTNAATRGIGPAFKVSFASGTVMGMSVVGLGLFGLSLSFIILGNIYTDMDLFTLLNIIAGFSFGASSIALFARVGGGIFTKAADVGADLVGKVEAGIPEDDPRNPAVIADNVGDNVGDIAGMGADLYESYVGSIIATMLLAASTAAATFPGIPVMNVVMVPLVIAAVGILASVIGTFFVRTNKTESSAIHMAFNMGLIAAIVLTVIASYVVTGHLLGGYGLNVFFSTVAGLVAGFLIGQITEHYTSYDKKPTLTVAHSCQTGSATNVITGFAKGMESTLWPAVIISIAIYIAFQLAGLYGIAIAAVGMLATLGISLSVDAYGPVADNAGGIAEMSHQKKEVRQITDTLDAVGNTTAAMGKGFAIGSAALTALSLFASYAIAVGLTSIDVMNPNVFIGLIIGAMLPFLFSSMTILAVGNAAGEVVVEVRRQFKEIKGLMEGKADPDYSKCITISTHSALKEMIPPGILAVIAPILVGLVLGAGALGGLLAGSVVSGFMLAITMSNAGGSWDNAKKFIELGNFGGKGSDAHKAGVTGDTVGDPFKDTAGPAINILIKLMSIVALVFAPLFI
The assay is described as follows: colorimetric orthophosphate release; fit of MWC-derived Equation […]. It counts as biochemical. The following applies: read-out: KR.

A further assay deals with T2, AVP1 (Arabidopsis thaliana, UniProt P31414).
T2 construct: InvGFPAVP1: N-terminal signal peptide of yeast Suc2p + yEGFP + AVP1; stripped microsomal membranes of S. cerevisiae YPC6; homodimer
T2 sequence (P31414 1-770): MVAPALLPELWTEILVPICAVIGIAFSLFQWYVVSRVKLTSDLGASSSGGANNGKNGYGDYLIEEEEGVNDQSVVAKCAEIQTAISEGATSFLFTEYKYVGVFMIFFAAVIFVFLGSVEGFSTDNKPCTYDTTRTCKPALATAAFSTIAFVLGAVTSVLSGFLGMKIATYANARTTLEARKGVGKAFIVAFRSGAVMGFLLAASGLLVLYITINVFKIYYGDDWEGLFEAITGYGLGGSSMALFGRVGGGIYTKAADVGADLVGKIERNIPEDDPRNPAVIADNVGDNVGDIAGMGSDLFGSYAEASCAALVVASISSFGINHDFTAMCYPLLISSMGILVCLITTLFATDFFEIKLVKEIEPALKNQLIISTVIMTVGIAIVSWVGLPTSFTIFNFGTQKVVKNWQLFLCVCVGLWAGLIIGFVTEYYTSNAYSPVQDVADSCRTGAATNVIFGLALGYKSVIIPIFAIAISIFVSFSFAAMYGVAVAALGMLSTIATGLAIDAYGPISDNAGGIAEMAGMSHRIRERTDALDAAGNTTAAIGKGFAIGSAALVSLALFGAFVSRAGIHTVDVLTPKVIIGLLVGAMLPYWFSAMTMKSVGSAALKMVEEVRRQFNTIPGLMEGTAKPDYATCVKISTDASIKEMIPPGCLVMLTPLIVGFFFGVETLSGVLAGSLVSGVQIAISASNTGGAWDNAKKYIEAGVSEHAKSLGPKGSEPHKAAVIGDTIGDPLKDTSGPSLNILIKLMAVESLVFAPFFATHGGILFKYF
The assay is described as above. The class given is biochemical. The following applies: read-out: KR.

As for `O=P(O)(O)OP(=O)(O)O` [Mg2PPi], the Kd was found to be 62 ± 8 µM at MVP and 84 ± 9 µM at AVP1.
